Experiments:
[1] = system: DA level in ST; assay: Measurement of DA level in ST (ELISA); format: in vivo, mice (C57BL/6j); settings: MPTP 30 mg/kg mice
Description: 40 mice were classified into five groups such that eight mice belonged to each group. After the habituation period, all mice were orally administered with a drug every day. While the mice of Groups 1 and 2 were administered with saline (p.o.), the mice of Groups 3, 4, and 5 were administered with 5 mg/kg ropinirole (p.o.), 5 mg/kg AKNS-2 (p.o.), and 15 mg/kg AKNS-2 (p.o.), respectively. […]
On the 7th day after the last administration of MPTP, SNpc and ST of each mouse were carefully excised and stored at −80° C. until use. […] A concentration of proteins contained in the supernatant was measured by the Bradford method. […]
DA levels in ST were measured using a competitive ELISA kit (Abnova, Taipei City, Taiwan) according to the manufacturer's instructions. […] After determining a concentration of proteins contained in the supernatant, the DA level in each brain sample was detected twice using the ELISA kit. Absorbance was measured using a microreader (BioTek, Vt., USA) at 450 nm, and the intensity was inversely proportional to the DA level. The DA level was expressed as ng/mg protein.

[2] = system: MPTP-induced in vivo PD model; assay: Wire hanging test; set-up: species or system mice (C57BL/6j); settings: MPTP mice
Description: In this study, all animal management and experimental protocols were performed in compliance with guidelines of the Institutional Animal Care and Use Committee of the Korea Institute of Science and Technology. 40 mice (C57BL/6j, male, 8 weeks old) were purchased from SLC Inc. (Shizuoka, Japan). After arrival, every four mice were hosed in each cage (30 cm×18.5 cm×13 cm) and allowed free access to feed and water. All mice were housed under the following constant conditions: lights on from 6:00 to 18:00, a temperature of 23° C.±1° C., and a humidity of 50%±10%. After 7 days of a habituation period, the mice were used in the experiments according to standard protocols. 40 mice were classified into five groups such that eight mice belonged to each group. After the habituation period, all mice were orally administered with a drug every day. […] Each mouse was administered with a single dose of saline/MPTP injection every day for 8 days. […] A time taken for the mouse to fall off the wire was recorded up to 300 seconds. On the day before MPTP administration, the test was performed three times for each mouse, and an average hanging time of three tests was analyzed as an index to evaluate balance, myofunction, and coordination. […] Average latency to fall off the wire onto the bedding material was calculated for each mouse.

[3] = system: autophagy-related protein markers including LC3, p62, AMPK, Erk, ULK, and mTOR; assay: Western blot of autophagy-related protein markers in ST and SN of mice; format: in vivo, mice (C57BL/6j); settings: for expression of p-mTOR in ST / p-mTOR in SN: MPTP mice; for expression of p-ULK: ST and SN, vs MPTP
Description: 40 mice were classified into five groups such that eight mice belonged to each group. After the habituation period, all mice were orally administered with a drug every day. While the mice of Groups 1 and 2 were administered with saline (p.o.), the mice of Groups 3, 4, and 5 were administered with 5 mg/kg ropinirole (p.o.), 5 mg/kg AKNS-2 (p.o.), and 15 mg/kg AKNS-2 (p.o.), respectively. From the 5th day therefrom, the mice of Group 1 were intraperitoneally administered with a saline at 1 hour after gavage feeding of saline, and the mice of Groups 2, 3, 4, and 5 were administered with 30 mg/kg MPTP (i.p.) at 1 hour after gavage feeding of saline, ropinirole, AKNS-2 (5 mg/kg), and AKNS-2 (15 mg/kg), respectively. Each mouse was administered with a single dose of saline/MPTP injection every day for 8 days. At 7 days after the final MPTP injection, all mice were sacrificed by cervical dislocation, and then the whole brain, SNpc, and striatum (ST) were excised for biochemical analysis.
On the 7th day after the last administration of MPTP, SNpc and ST of each mouse were carefully excised and stored at −80° C. until use. Thereafter, brain tissue of SNpc and ST was homogenized in a PRO-PREP™ lysis buffer (iNtRON, Gyeonggi, Korea) containing a phosphatase inhibitor cocktail set I (Sigma-Aldrich, Mo., USA). After shaking at 4° C. for 30 minutes, homogenates were centrifuged at 4° C. at 13000×g for 20 minutes, and a supernatant obtained therefrom was collected and added to a new 1.5 mL tube. A concentration of proteins contained in the supernatant was measured by the Bradford method. A part of the supernatant was mixed with the same volume of a loading buffer and denatured in a heater at 99° C. for 5 minutes for western blot analysis. The remaining supernatant was stored at −80° C. for subsequent tests for MAO-B activity and DA level using an ELISA kit.
Protein markers contained in lysates of the SH-SY5Y cells and brain tissue of the mice (SNpc and ST) were measured by western blot analysis. […] Then, proteins separated on the gel were transferred to a polyvinylidene fluoride (PVDF) membrane for 45 minutes using a Trans-Blot Turbo Transfer System (Bio-Rad, USA). The membrane was washed with tris-buffered saline with 0.1% Tween 20, TBST) for 5 minutes and then blocked by 5% skim milk dissolved in a TBST buffer. The membrane was further incubated with monoclonal primary antibodies derived from rabbits (anti-GAPDH, anti-AMPK, anti-p-AMPK, anti-ULK, anti-p-ULK555, anti-Erk, anti-p-Erk, anti-mTOR, anti-p-mTOR, anti-LC3B, anti-TH, and anti-α-synuclein antibodies). The primary antibodies were diluted in a blocking buffer at a ratio of 1:1000 and incubated overnight at 4° C. On the second day, the membrane was washed with TBST three times (10 minutes each) and incubated at room temperature in a horseradish peroxidase-conjugated goat anti-rabbit IgG secondary antibody (diluted in a blocking buffer at a ratio of 1:2000). After incubating in the secondary antibody for 1 hour, the membrane was washed for 30 minutes. The protein blots on the membrane were developed using an ECL detection kit and visualized using an LAS-4000 mini system (Fujifilm, Japan). The intensity of the protein blots was quantified using Multi Gauge software (Fujifilm, Japan).

[4] = both ST and SN, vs MPTP treatment
[5] = 15 mg/kg p.o., vs MPTP treatment

| SMILES | DA level in ST ([1]; 5 mg/kg p.o.) | latency to fall off in wire hanging test ([2]; 5 mg/kg p.o., 2 hours) | expression of p-mTOR in ST [3] | p-mTOR in SN [3] | expression of p-ULK ([3]; ropinirole) | p-AMPK [3, 4] | DA level in ST ([1]; 15 mg/kg p.o.) | behavior performance in wire hanging test ([2]; 15 mg/kg p.o., 2 hours and 24 hours) | expression of LC3-II in SN [3, 5] | expression of LC3-II in ST [3, 5] | expression of p-ULK ([3]; 5 mg/kg and 15 mg/kg p.o.) | p62 levels ([3]; both ST and SN, 5 mg/kg and 15 mg/kg p.o., vs MPTP-treated group) | expression of p-Erk ([3]; both ST and SN, 15 mg/kg p.o., vs MPTP treatment) |
| --- | --- | --- | --- | --- | --- | --- | --- | --- | --- | --- | --- | --- | --- |
| CCCN(CCC)CCc1cccc2c1CC(=O)N2 [ropinirole, reference compound] | the decrease in the DA level induced by MPTP was restored | improved latency deteriorated by MPTP | clearly showed a tendency to decrease the expression of p-mTOR in ST | a significant decrease in p-mTOR | significantly increased the expression of p-ULK in ST and SN | induced a significant increase in p-AMPK in both ST and SN |  |  |  |  |  |  |  |
| C[C@@H]1O[C@@H](O[C@@H]2[C@@H](O)[C@H](O[C@@H]3[C@@H](O[C@@H]4OC[C@@H](O)[C@H](O)[C@H]4O)[C@@H](O)[C@H](O[C@H]4[C@H](OC(=O)[C@]56CCC(C)(C)C[C@H]5C5=CC[C@@H]7[C@@]8(C)C[C@H](O)[C@H](O[C@@H]9O[C@H](CO)[C@@H](O)[C@H](O[C@@H]%10OC[C@@H](O)[C@H](O)[C@H]%10O)[C@H]9O)[C@@](C)(CO)[C@@H]8CC[C@@]7(C)[C@]5(C)C[C@H]6O)OC[C@H](O)[C@@H]4O)O[C@H]3C)OC[C@H]2O)[C@H](O)[C@H](O)[C@H]1O [Compound 1, 3-O-β-D-xylopyranosyl-(1→3)-β-D-glucopyranosylpolygalacic acid 28-O-α-L-rhamnopyranosyl-(1→3)-β-D-xylopyranosyl-(1→4)-[β-D-xylopyranosyl-(1→3)]-α-L-rhamnopyranosyl-(1→2)-α-L-arabinopyranosyl ester] |  |  | clearly showed a tendency to decrease the expression of p-mTOR in ST | a significant decrease in p-mTOR |  | induced a significant increase in p-AMPK in both ST and SN | the decrease in the DA level induced by MPTP was restored | impaired behavior performance was significantly improved | Although no noticeable difference was observed, increased expression of LC3-II was observed in SN | induced a significant increase in the expression of LC3-II in ST | significantly increased the expression of p-ULK in ST and SN | significantly decreased p62 levels | significantly increased |

From patent US12234257B2, “Triterpene saponin derivative and use thereof” (KOREA INSTITUTE OF SCIENCE AND TECHNOLOGY, priority 2020, dated 2025)
